We go through twelve molecules from ChEMBL document CHEMBL5252605, “Design, synthesis, and biological testing of biphenylmethyloxazole inhibitors targeting HIV-1 reverse transcriptase” (Bioorg Med Chem Lett, 2023).

Broadly, the IC50 is the concentration that gives 50% inhibition. The CC50 is the concentration that lowers cell viability or growth by half. Usually EC50 stands for the concentration giving half of the maximal effect.

In data set [1] the target is Human immunodeficiency virus type 1 reverse transcriptase (Human immunodeficiency virus 1, UniProt Q72547). The data set is described as follows: Inhibition of recombinant wildtype HIV-1 reverse transcriptase using r(A)350 as template and d(T)16 as primer preincubated with compound for 1 hrs followed by template/primer addition and measured after 30 mins by picogreen based plate reader analysis.

The subject of data set [2] is Human immunodeficiency virus 1. The data set is described as follows: Antiviral activity against wildtype HIV-1 IIIb infected in human MT2 cells assessed as protection of viral infected cells. The class given is functional, organism-based. The settings on record: for EC50: Human immunodeficiency virus 1, IIIB.
For another data set, the system named is MT2. The data set is described as follows: Cytotoxicity against human MT2 cells assessed as inhibition of cell growth. In kind it is toxicity, cell-based.
Data set [3] addresses Human immunodeficiency virus type 1 reverse transcriptase (Human immunodeficiency virus 1) (UniProt Q72547). The data set is described as follows: Time dependent inhibition of recombinant wildtype HIV-1 reverse transcriptase at 0.1 to 1000000 nM. To be noted: dose 0.1-1e+06 nM, time 1-48 hrs.

Each structure is given as a SMILES string. The source made the active and inactive calls. The rule behind the calls is not given here.

Regarding `N#Cc1ccc(Nc2ncc(Cc3c(F)cc(-c4ccc(OS(=O)(=O)F)cc4)cc3F)o2)cc1`, the IC50 in data set [1] is greater than 20 µM. The outcome in data set [2] was inactive. Further, the CC50 with MT2 is 30 µM. The TDI result in data set [3] was “inactive”.

Regarding `N#Cc1ccc(Nc2ncc(Cc3ccc(-c4ccccc4)cc3)o2)cc1`, the 50% inhibitory concentration (IC50) in data set [1] is greater than 100 µM. Also, the result in data set [2] was inactive. For the same molecule, the CC50 with MT2 turned out to be 80 µM.

As to `N#Cc1ccc(Nc2ncc(Cc3c(F)cc(-c4ccc(C#N)cc4)cc3F)o2)cc1`, the IC50 in data set [1] was 0.011 µM. The EC50 in data set [2] is 0.03 µM. In the data set with MT2, the CC50 stood at 9 µM.

In the case of `C=Cc1ccc(-c2cc(F)c(Cc3cnc(Nc4ccc(C#N)c(Cl)c4)o3)c(F)c2)cc1`, in data set [1], the IC50 is 0.017 µM. In data set [2], the EC50 was 0.019 µM. Further, the CC50 with MT2 stood at 30 µM.

Consider `N#Cc1ccc(Nc2ncc(Cc3c(F)cccc3F)o2)cc1Cl`, for which the EC50 in data set [2] came out at 0.0062 µM.

As to `N#Cc1ccc(Nc2ncc(Cc3c(F)cc(-c4ccc(OS(=O)(=O)F)cc4)cc3F)o2)cc1Cl`, the IC50 in data set [1] is 3 µM. Also, the concentration giving a half-maximal response (EC50) in data set [2] turned out to be 4.3 µM. Moreover, the CC50 in the data set with MT2 turned out to be 25 µM. In data set [3], the TDI result was “inactive”.

Regarding `N#Cc1ccc(Nc2ncc(Cc3c(F)cc(-c4ccc(O)cc4)cc3F)o2)cc1Cl`, the concentration for half-maximal inhibition (IC50) in data set [1] was 0.28 µM. Besides, the EC50 in data set [2] stood at 1.3 µM. The CC50 with MT2 is 15 µM.

Turning to `COc1ccc(-c2ccc(Cc3cnc(Nc4ccc(C#N)cc4)o3)cc2)cc1`, in data set [1], the IC50 was greater than 10 µM. The outcome in data set [2] was inactive. Further, the CC50 with MT2 came to 27 µM.

As to `N#Cc1ccc(Nc2ncc(Cc3c(F)cc(-c4ccccc4)cc3F)o2)cc1`, in data set [1], the IC50 was determined as 0.02 µM. Further, the EC50 in data set [2] turned out to be 0.17 µM. In the data set with MT2, the CC50 turned out to be 59 µM.

On to `N#Cc1ccc(-c2cc(F)c(Cc3cnc(Nc4ccc(C#N)c(Cl)c4)o3)c(F)c2)cc1`, for which the IC50 in data set [1] is less than 0.01 µM. For the same molecule, in data set [2], the EC50 was found to be 0.016 µM. Further, the CC50 with MT2 is 9.5 µM.

Consider `N#Cc1ccc(Nc2ncc(Cc3c(F)cc(-c4ccc(O)cc4)cc3F)o2)cc1`, for which the IC50 in data set [1] was greater than 1 µM. Besides, in data set [2], the EC50 came to 5.5 µM. Besides, the CC50 in the data set with MT2 was found to be 15 µM.

On to `N#Cc1ccc(Nc2ncc(Cc3c(F)cc(-c4ccc(C5CO5)cc4)cc3F)o2)cc1Cl` (configuration not stated), for which the IC50 in data set [1] was 0.44 µM. Further, the concentration for a half-maximal effect (EC50) in data set [2] was found to be 0.61 µM. In addition, the CC50 with MT2 stood at 25 µM. Moreover, the TDI result in data set [3] is “inactive”.
